In brackets after ≈: the same amount, converted by molar mass.
How the values were obtained:
Type in all cases: functional
[1] = tested on: Staphylococcus aureus; test: Antibacterial activity against erythromycin-susceptible Staphylococcus aureus Smith OC4172 in presence of 50% mouse serum
[2] = tested on: Streptococcus pneumoniae; test: Antibacterial activity against erythromycin-resistant Streptococcus pneumoniae OC4051 containing erm(B)
[3] = tested on: Streptococcus pneumoniae; test: Antibacterial activity against erythromycin-susceptible Streptococcus pneumoniae OC9132
[4] = tested on: Haemophilus influenzae; test: Antibacterial activity against telithromycin-susceptible Haemophilus influenzae ATCC 49766
[5] = tested on: Staphylococcus haemolyticus; test: Antibacterial activity against erythromycin resistant Staphylococcus haemolyticus OC3882 containing erm(C)
[6] = tested on: Staphylococcus aureus; test: Antibacterial activity against Staphylococcus aureus Smith infected in orally dosed Swiss Webster mouse septicemia model; conditions: po
[7] = tested on: Staphylococcus aureus; test: Antibacterial activity against Staphylococcus aureus Smith infected in sc dosed Swiss Webster mouse septicemia model
[8] = tested on: Streptococcus pneumoniae; test: Antibacterial activity against erythromycin-resistant Streptococcus pneumoniae OC4421 containing mef(A)
[9] = tested on: Staphylococcus aureus; test: Antibacterial activity against erythromycin-susceptible Staphylococcus aureus Smith OC4172

Compound	MIC [1] [µg/mL]	MIC [2] [µg/mL]	MIC [3] [µg/mL]	MIC [4] [µg/mL]	MIC [5] [µg/mL]	ED50 [6] [mg/kg]	ED50 [7] [mg/kg]	MIC [8] [µg/mL]	MIC [9] [µg/mL]
CC[C@H]1OC(=O)[C@H](C)C(=O)[C@H](C)[C@@H](O[C@@H]2O[C@H](C)C[C@H](N(C)C)[C@H]2O)[C@](C)(OC(=O)NNCCc2cccc(-c3ncccn3)c2)C[C@@H](C)C(=O)[C@H](C)[C@H]2NC(=O)O[C@@]21C	1	0.06 (≈ 0.0715 µM)	0.03 (≈ 0.0358 µM)	2 (≈ 2.38 µM)	0.25 (≈ 0.298 µM)	> 20	4.3	0.25 (≈ 0.298 µM)	0.25 (≈ 0.298 µM)
CC[C@H]1OC(=O)[C@H](C)C(=O)[C@H](C)[C@@H](O[C@@H]2O[C@H](C)C[C@H](N(C)C)[C@H]2O)[C@](C)(OC(=O)NNCCc2ccc(-c3cnccn3)cc2)C[C@@H](C)C(=O)[C@H](C)[C@H]2NC(=O)O[C@@]21C	0.5	0.06 (≈ 0.0715 µM)	0.03 (≈ 0.0358 µM)	2 (≈ 2.38 µM)	0.25 (≈ 0.298 µM)	–	–	0.25 (≈ 0.298 µM)	0.25 (≈ 0.298 µM)
CC[C@H]1OC(=O)[C@H](C)C(=O)[C@H](C)[C@@H](O[C@@H]2O[C@H](C)C[C@H](N(C)C)[C@H]2O)[C@](C)(OC(=O)NN(C)CCc2ccc(-c3ncccn3)cc2)C[C@@H](C)C(=O)[C@H](C)[C@H]2NC(=O)O[C@@]21C	0.5	0.06 (≈ 0.0703 µM)	0.03 (≈ 0.0352 µM)	4 (≈ 4.69 µM)	0.5 (≈ 0.586 µM)	> 20	3.3	0.25 (≈ 0.293 µM)	0.25 (≈ 0.293 µM)
CC[C@H]1OC(=O)[C@H](C)C(=O)[C@H](C)[C@@H](O[C@@H]2O[C@H](C)C[C@H](N(C)C)[C@H]2O)[C@](C)(OC(=O)NN(C)CCc2ccc(-c3cnccn3)cc2)C[C@@H](C)C(=O)[C@H](C)[C@H]2NC(=O)O[C@@]21C	0.5	0.06 (≈ 0.0703 µM)	0.03 (≈ 0.0352 µM)	2 (≈ 2.34 µM)	0.5 (≈ 0.586 µM)	–	–	0.25 (≈ 0.293 µM)	0.25 (≈ 0.293 µM)
CC[C@H]1OC(=O)[C@H](C)C(=O)[C@H](C)[C@@H](O[C@@H]2O[C@H](C)C[C@H](N(C)C)[C@H]2O)[C@](C)(OC(=O)NN(C)CCc2ccc(-c3ncccn3)s2)C[C@@H](C)C(=O)[C@H](C)[C@H]2NC(=O)O[C@@]21C	0.5	0.06 (≈ 0.0698 µM)	0.03 (≈ 0.0349 µM)	2 (≈ 2.33 µM)	0.25 (≈ 0.291 µM)	> 20	4.8	0.12 (≈ 0.14 µM)	0.25 (≈ 0.291 µM)
CC[C@H]1OC(=O)[C@H](C)C(=O)[C@H](C)[C@@H](O[C@@H]2O[C@H](C)C[C@H](N(C)C)[C@H]2O)[C@](C)(OC(=O)NN(C)Cc2ccc(-c3ncccn3)cc2)C[C@@H](C)C(=O)[C@H](C)[C@H]2NC(=O)O[C@@]21C	8	0.5 (≈ 0.596 µM)	0.06 (≈ 0.0715 µM)	4 (≈ 4.77 µM)	2 (≈ 2.38 µM)	–	–	1 (≈ 1.19 µM)	2 (≈ 2.38 µM)
CC[C@H]1OC(=O)[C@H](C)[C@@H](O[C@H]2C[C@@](C)(OC)[C@@H](O)[C@H](C)O2)[C@H](C)[C@@H](O[C@@H]2O[C@H](C)C[C@H](N(C)C)[C@H]2O)[C@](C)(O)C[C@@H](C)C(=O)[C@H](C)[C@@H](O)[C@]1(C)O [ERYTHROMYCIN]	0.06	> 16	0.06 (≈ 0.0818 µM)	8 (≈ 10.9 µM)	> 16	–	–	4 (≈ 5.45 µM)	1 (≈ 1.36 µM)
CC[C@H]1OC(=O)[C@H](C)C(=O)[C@H](C)[C@@H](O[C@@H]2O[C@H](C)C[C@H](N(C)C)[C@H]2O)[C@](C)(OC)C[C@@H](C)C(=O)[C@H](C)[C@H]2N(CCCCn3cnc(-c4cccnc4)c3)C(=O)O[C@]12C [TELITHROMYCIN]	0.5	0.06 (≈ 0.0739 µM)	0.06 (≈ 0.0739 µM)	1 (≈ 1.23 µM)	0.25 (≈ 0.308 µM)	> 20	4.3	0.12 (≈ 0.148 µM)	0.25 (≈ 0.308 µM)
CC[C@H]1OC(=O)[C@H](C)C(=O)[C@H](C)[C@@H](O[C@@H]2O[C@H](C)C[C@H](N(C)C)[C@H]2O)[C@](C)(OC(=O)NNCCc2ccc(-c3ncccn3)cc2)C[C@@H](C)C(=O)[C@H](C)[C@H]2NC(=O)O[C@@]21C	0.25	0.12 (≈ 0.143 µM)	0.03 (≈ 0.0358 µM)	4 (≈ 4.77 µM)	0.25 (≈ 0.298 µM)	–	–	0.12 (≈ 0.143 µM)	0.25 (≈ 0.298 µM)
CC[C@H]1OC(=O)[C@H](C)C(=O)[C@H](C)[C@@H](O[C@@H]2O[C@H](C)C[C@H](N(C)C)[C@H]2O)[C@](C)(OC(=O)NNCCc2cnc3ccccc3c2)C[C@@H](C)C(=O)[C@H](C)[C@H]2NC(=O)O[C@@]21C	1	0.06 (≈ 0.0739 µM)	0.03 (≈ 0.0369 µM)	0.5 (≈ 0.616 µM)	0.5 (≈ 0.616 µM)	–	–	0.25 (≈ 0.308 µM)	0.5 (≈ 0.616 µM)
CC[C@H]1OC(=O)[C@H](C)C(=O)[C@H](C)[C@@H](O[C@@H]2O[C@H](C)C[C@H](N(C)C)[C@H]2O)[C@](C)(OC(=O)NN(C)C/C=C/c2ccc(-c3ncccn3)cc2)C[C@@H](C)C(=O)[C@H](C)[C@H]2NC(=O)O[C@@]21C	0.5	0.25 (≈ 0.289 µM)	0.03 (≈ 0.0347 µM)	8 (≈ 9.25 µM)	0.5 (≈ 0.578 µM)	–	–	0.5 (≈ 0.578 µM)	0.25 (≈ 0.289 µM)
CC[C@H]1OC(=O)[C@H](C)C(=O)[C@H](C)[C@@H](O[C@@H]2O[C@H](C)C[C@H](N(C)C)[C@H]2O)[C@](C)(OC(=O)N(C)NCCc2ccc(-c3cnccn3)cc2)C[C@@H](C)C(=O)[C@H](C)[C@H]2NC(=O)O[C@@]21C	2	0.12 (≈ 0.141 µM)	0.06 (≈ 0.0703 µM)	8 (≈ 9.38 µM)	2 (≈ 2.34 µM)	–	–	0.5 (≈ 0.586 µM)	0.5 (≈ 0.586 µM)
CC[C@H]1OC(=O)[C@H](C)C(=O)[C@H](C)[C@@H](O[C@@H]2O[C@H](C)C[C@H](N(C)C)[C@H]2O)[C@](C)(OC(=O)N(C)N(C)CCc2ccc(-c3cnccn3)cc2)C[C@@H](C)C(=O)[C@H](C)[C@H]2NC(=O)O[C@@]21C	4	0.5 (≈ 0.577 µM)	0.06 (≈ 0.0692 µM)	16 (≈ 18.5 µM)	8 (≈ 9.23 µM)	–	–	0.5 (≈ 0.577 µM)	2 (≈ 2.31 µM)
CC[C@H]1OC(=O)[C@H](C)C(=O)[C@H](C)[C@@H](O[C@@H]2O[C@H](C)C[C@H](N(C)C)[C@H]2O)[C@](C)(OC(=O)NN(C)CCc2ccc(-c3ncccn3)cc2F)C[C@@H](C)C(=O)[C@H](C)[C@H]2NC(=O)O[C@@]21C	1	0.06 (≈ 0.0689 µM)	0.06 (≈ 0.0689 µM)	4 (≈ 4.59 µM)	0.5 (≈ 0.574 µM)	> 20	2.3	0.25 (≈ 0.287 µM)	0.5 (≈ 0.574 µM)
CC[C@H]1OC(=O)[C@H](C)C(=O)[C@H](C)[C@@H](O[C@@H]2O[C@H](C)C[C@H](N(C)C)[C@H]2O)[C@](C)(OC(=O)NN(CC)CCc2ccc(-c3ncccn3)cc2)C[C@@H](C)C(=O)[C@H](C)[C@H]2NC(=O)O[C@@]21C	2	0.12 (≈ 0.138 µM)	0.12 (≈ 0.138 µM)	8 (≈ 9.23 µM)	0.5 (≈ 0.577 µM)	–	–	0.25 (≈ 0.288 µM)	0.25 (≈ 0.288 µM)
CC[C@H]1OC(=O)[C@H](C)C(=O)[C@H](C)[C@@H](O[C@@H]2O[C@H](C)C[C@H](N(C)C)[C@H]2O)[C@](C)(OC(=O)NN(C)CCCc2ccc(-c3ncccn3)cc2)C[C@@H](C)C(=O)[C@H](C)[C@H]2NC(=O)O[C@@]21C	1	0.5 (≈ 0.577 µM)	0.06 (≈ 0.0692 µM)	8 (≈ 9.23 µM)	1 (≈ 1.15 µM)	–	–	0.5 (≈ 0.577 µM)	0.5 (≈ 0.577 µM)
CC[C@H]1OC(=O)[C@H](C)C(=O)[C@H](C)[C@@H](O[C@@H]2O[C@H](C)C[C@H](N(C)C)[C@H]2O)[C@](C)(OC(=O)NN)C[C@@H](C)C(=O)[C@H](C)[C@H]2NC(=O)O[C@@]21C	2	8 (≈ 12.2 µM)	0.5 (≈ 0.761 µM)	8 (≈ 12.2 µM)	16 (≈ 24.4 µM)	–	–	8 (≈ 12.2 µM)	8 (≈ 12.2 µM)
CC[C@H]1OC(=O)[C@H](C)C(=O)[C@H](C)[C@@H](O[C@@H]2O[C@H](C)C[C@H](N(C)C)[C@H]2O)[C@](C)(OC(=O)NN(C)CCc2ccc(-c3ncco3)cc2)C[C@@H](C)C(=O)[C@H](C)[C@H]2NC(=O)O[C@@]21C	0.5	0.06 (≈ 0.0713 µM)	0.03 (≈ 0.0356 µM)	2 (≈ 2.38 µM)	0.5 (≈ 0.594 µM)	–	–	0.12 (≈ 0.143 µM)	0.25 (≈ 0.297 µM)
CC[C@H]1OC(=O)[C@H](C)C(=O)[C@H](C)[C@@H](O[C@@H]2O[C@H](C)C[C@H](N(C)C)[C@H]2O)[C@](C)(OC(=O)NN(C)CCc2cnc3ccccc3c2)C[C@@H](C)C(=O)[C@H](C)[C@H]2NC(=O)O[C@@]21C	2	0.12 (≈ 0.145 µM)	0.06 (≈ 0.0726 µM)	2 (≈ 2.42 µM)	8 (≈ 9.69 µM)	–	–	0.5 (≈ 0.605 µM)	1 (≈ 1.21 µM)
